Laboratory results from ChEMBL document CHEMBL1649312, “Absence of association between piperaquine in vitro responses and polymorphisms in the pfcrt, pfmdr1, pfmrp, and pfnhe genes in Plasmodium falciparum” (Antimicrob Agents Chemother, 2010).

Assays:
Type in all cases: functional, organism-based
Plasmodium falciparum [1] = assay: Antimalarial activity against Plasmodium falciparum FCM29 assessed as inhibition of [3H] incorporation after 48 hrs by scintillation counter
Plasmodium falciparum [2] = assay: Antimalarial activity against Plasmodium falciparum IMT A4 assessed as inhibition of [3H] incorporation after 48 hrs by scintillation counter
Plasmodium falciparum [3] = assay: Antimalarial activity against Plasmodium falciparum IMT 8425 assessed as inhibition of [3H] incorporation after 48 hrs by scintillation counter
Plasmodium falciparum [4] = assay: Antimalarial activity against Plasmodium falciparum IMT 9881 assessed as inhibition of [3H] incorporation after 48 hrs by scintillation counter
Plasmodium falciparum [5] = assay: Antimalarial activity against Plasmodium falciparum IMT 10354 assessed as inhibition of [3H] incorporation after 48 hrs by scintillation counter
Plasmodium falciparum [6] = assay: Antimalarial activity against Plasmodium falciparum IMT 16332 assessed as inhibition of [3H] incorporation after 48 hrs by scintillation counter
Plasmodium falciparum [7] = assay: Antimalarial activity against Plasmodium falciparum IMT K14 assessed as inhibition of [3H] incorporation after 48 hrs by scintillation counter
Plasmodium falciparum [8] = assay: Antimalarial activity against Plasmodium falciparum IMT K4 assessed as inhibition of [3H] incorporation after 48 hrs by scintillation counter
Plasmodium falciparum [9] = assay: Antimalarial activity against Plasmodium falciparum IMT Vol assessed as inhibition of [3H] incorporation after 48 hrs by scintillation counter
Plasmodium falciparum [10] = assay: Antimalarial activity against Plasmodium falciparum IMT 9881 harboring Ppcrt I371R mutant gene assessed as incorporation of [3]H hypoxanthine after 48 hrs by scintillation counter; conditions: IMT 9881, 48 h
Plasmodium falciparum [11] = assay: Antimalarial activity against Plasmodium falciparum IMT 10336 harboring Pfcrt Q271E mutant gene and Ppcrt I371R mutant gene assessed as incorporation of [3]H hypoxanthine after 48 hrs by scintillation counter; conditions: IMT 10336, 48 h
Plasmodium falciparum [12] = assay: Antimalarial activity against Plasmodium falciparum IMT 10354 harboring Ppcrt M74I, N75E, K76T, A220S mutant gene, Pmdr1 D1246Y mutant gene assessed as incorporation of [3]H hypoxanthine after 48 hrs by scintillation counter; conditions: IMT 10354, 48 h
Plasmodium falciparum [13] = assay: Antimalarial activity against Plasmodium falciparum IMT 10500 harboring Pfcrt Q271E mutant gene and Ppcrt I371R mutant gene and Pfnhe-1 ms4760 microsatellite mutant assessed as incorporation of [3]H hypoxanthine after 48 hrs by scintillation counter; conditions: IMT 10500, 48 h
Plasmodium falciparum [14] = assay: Antimalarial activity against Plasmodium falciparum IMT 16332 harboring Ppcrt M74I, N75E, K76T, A220S, Q271E mutant gene, Pmdr1 N86Y mutant gene assessed as incorporation of [3]H hypoxanthine after 48 hrs by scintillation counter; conditions: IMT 16332, 48 h
Plasmodium falciparum [15] = assay: Antimalarial activity against Plasmodium falciparum IMT K14 harboring Ppcrt M74I, N75E, K76T, A220S, Q271E, N326S mutant gene, Pmdr1 Y184F, S1034C, N1042D, D1246Y mutant gene and Pfmrp H191Y and S437A mutant gene assessed as incorporation of [3]H hypoxanthine after 48 hrs by scintillation counter; conditions: IMT K14, 48 h
Plasmodium falciparum [16] = assay: Antimalarial activity against Plasmodium falciparum IMT K2 harboring Ppcrt M74I, N75E, K76T, A220S, Q271E, N326S mutant gene, Pmdr1 S1034C, N1042D mutant gene and Pfmrp H191Y and S437A mutant gene assessed as incorporation of [3]H hypoxanthine after 48 hrs by scintillation counter; conditions: IMT K2, 48 h
Plasmodium falciparum [17] = assay: Antimalarial activity against Plasmodium falciparum IMT K4 harboring Ppcrt M74I, N75E, K76T, A220S, Q271E, N326S mutant gene, Pmdr1 S1034C, N1042D mutant gene and Pfmrp H191Y and S437A mutant gene assessed as incorporation of [3]H hypoxanthine after 48 hrs by scintillation counter; conditions: IMT K4, 48 h
Plasmodium falciparum [18] = assay: Antimalarial activity against Plasmodium falciparum IMT L1 harboring Ppcrt M74I, N75E, K76T, A220S, Q271E mutant gene, Pmdr1 N86Y mutant gene and Pfmrp H191Y and S437A mutant gene assessed as incorporation of [3]H hypoxanthine after 48 hrs by scintillation counter; conditions: IMT L1, 48 h
Plasmodium falciparum [19] = assay: Antimalarial activity against Plasmodium falciparum IMT Vol harboring Ppcrt M74I, N75E, K76T, A220S, Q271E, N326S mutant gene, Pmdr1 N86Y mutant gene and Pfmrp H191Y and S437A mutant gene assessed as incorporation of [3]H hypoxanthine after 48 hrs by scintillation counter
Plasmodium falciparum [20] = assay: Antimalarial activity against Plasmodium falciparum 3D7 harboring Ppcrt I371R mutant gene and Pfnhe-1 ms4760 microsatellite mutant assessed as incorporation of [3]H hypoxanthine after 48 hrs by scintillation counter; conditions: 3D7, 48 h
Plasmodium falciparum [21] = assay: Antimalarial activity against Plasmodium falciparum 3D7 assessed as inhibition of [3H] incorporation after 48 hrs by scintillation counter
Plasmodium falciparum [22] = assay: Antimalarial activity against Plasmodium falciparum W2 assessed as inhibition of [3H] incorporation after 48 hrs by scintillation counter
Plasmodium falciparum [23] = assay: Antimalarial activity against Plasmodium falciparum D6 assessed as inhibition of [3H] incorporation after 48 hrs by scintillation counter
Plasmodium falciparum [24] = assay: Antimalarial activity against Plasmodium falciparum FCR3 assessed as inhibition of [3H] incorporation after 48 hrs by scintillation counter
Plasmodium falciparum [25] = assay: Antimalarial activity against Plasmodium falciparum PA assessed as inhibition of [3H] incorporation after 48 hrs by scintillation counter
Plasmodium falciparum [26] = assay: Antimalarial activity against Plasmodium falciparum HB3 assessed as inhibition of [3H] incorporation after 48 hrs by scintillation counter
Plasmodium falciparum [27] = assay: Antimalarial activity against Plasmodium falciparum 106/1 assessed as inhibition of [3H] incorporation after 48 hrs by scintillation counter
Plasmodium falciparum [28] = assay: Antimalarial activity against Plasmodium falciparum IMT Bres assessed as inhibition of [3H] incorporation after 48 hrs by scintillation counter
Plasmodium falciparum [29] = assay: Antimalarial activity against Plasmodium falciparum IMT Guy assessed as inhibition of [3H] incorporation after 48 hrs by scintillation counter
Plasmodium falciparum [30] = assay: Antimalarial activity against Plasmodium falciparum IMT 31 assessed as inhibition of [3H] incorporation after 48 hrs by scintillation counter
Plasmodium falciparum [31] = assay: Antimalarial activity against Plasmodium falciparum IMT 10336 assessed as inhibition of [3H] incorporation after 48 hrs by scintillation counter
Plasmodium falciparum [32] = assay: Antimalarial activity against Plasmodium falciparum IMT 10500 assessed as inhibition of [3H] incorporation after 48 hrs by scintillation counter
Plasmodium falciparum [33] = assay: Antimalarial activity against Plasmodium falciparum IMT K2 assessed as inhibition of [3H] incorporation after 48 hrs by scintillation counter
Plasmodium falciparum [34] = assay: Antimalarial activity against Plasmodium falciparum IMT L1 assessed as inhibition of [3H] incorporation after 48 hrs by scintillation counter
Plasmodium falciparum [35] = assay: Antimalarial activity against Plasmodium falciparum W2 harboring Ppcrt M74I, N75E, K76T, A220S, Q271E, N326S and I356T mutant gene, Pmdr1 N86Y mutant gene and Pfmrp H191Y and S437A mutant gene assessed as incorporation of [3]H hypoxanthine after 48 hrs by scintillation counter; conditions: W2, 48 h
Plasmodium falciparum [36] = assay: Antimalarial activity against Plasmodium falciparum D6 harboring Ppcrt I371R mutant gene assessed as incorporation of [3]H hypoxanthine after 48 hrs by scintillation counter; conditions: D6, 48 h
Plasmodium falciparum [37] = assay: Antimalarial activity against Plasmodium falciparum FCM29 harboring Ppcrt M74I, N75E, K76T, A220S, Q271E, N326S and I356T mutant gene, Pmdr1 N86Y mutant gene and Pfmrp H191Y and S437A mutant gene assessed as incorporation of [3]H hypoxanthine after 48 hrs by scintillation counter; conditions: FCM29, 48 h
Plasmodium falciparum [38] = assay: Antimalarial activity against Plasmodium falciparum FCR3 harboring Ppcrt M74I, N75E, K76T, A220S, Q271E, N326S and I356T mutant gene, Pmdr1 N86Y mutant gene and Pfmrp H191Y and S437A mutant gene assessed as incorporation of [3]H hypoxanthine after 48 hrs by scintillation counter; conditions: FCR3, 48 h
Plasmodium falciparum [39] = assay: Antimalarial activity against Plasmodium falciparum PA harboring Ppcrt M74I, N75E, K76T, A220S, Q271E, N326S and I356T mutant gene, Pmdr1 N86Y mutant gene and Pfmrp H191Y and S437A mutant gene assessed as incorporation of [3]H hypoxanthine after 48 hrs by scintillation counter
Plasmodium falciparum [40] = assay: Antimalarial activity against Plasmodium falciparum HB3 harboring Ppcrt I371R mutant gene and Pfmdr1 Y184F mutant gene assessed as incorporation of [3]H hypoxanthine after 48 hrs by scintillation counter; conditions: HB3, 48 h
Plasmodium falciparum [41] = assay: Antimalarial activity against Plasmodium falciparum 106/1 harboring Ppcrt M74I, N75E, K76T, A220S, Q271E, N326S and I356T mutant gene, Pmdr1 N86Y mutant gene and Pfmrp H191Y and S437A mutant gene assessed as incorporation of [3]H hypoxanthine after 48 hrs by scintillation counter; conditions: 106/1, 48 h
Plasmodium falciparum [42] = assay: Antimalarial activity against Plasmodium falciparum IMT Bres harboring Ppcrt M74I, N75E, K76T, A220S, Q271E, N326S and I356T mutant gene, Pmdr1 N86Y mutant gene and Pfmrp H191Y and S437A mutant gene assessed as incorporation of [3]H hypoxanthine after 48 hrs by scintillation counter
Plasmodium falciparum [43] = assay: Antimalarial activity against Plasmodium falciparum IMT Guy harboring Ppcrt K76T, A220S, N326D and I371R mutant gene, Pmdr1 […], 1042D and D1246Y, mutant gene and Pfmrp H191Y and S437A mutant gene and Pfnhe-1 ms4760 microsatellite mutant assessed as incorporation of [3]H hypoxanthine after 48 hrs by scintillation counter
Plasmodium falciparum [44] = assay: Antimalarial activity against Plasmodium falciparum IMT A4 harboring Ppcrt M74I, N75E, K76T, […], Q271E, N326S and I356T mutant gene, Pmdr1 Y184F, N1042D, D1246Y mutant gene assessed as incorporation of [3]H hypoxanthine after 48 hrs by scintillation counter; conditions: IMT A4, 48 h
Plasmodium falciparum [45] = assay: Antimalarial activity against Plasmodium falciparum IMT 31 harboring Ppcrt I371R mutant gene assessed as incorporation of [3]H hypoxanthine after 48 hrs by scintillation counter; conditions: IMT 31, 48 h
Plasmodium falciparum [46] = assay: Antimalarial activity against Plasmodium falciparum IMT 8425 harboring Ppcrt I371R mutant gene and Pfnhe-1 ms4760 microsatellite mutant assessed as incorporation of [3]H hypoxanthine after 48 hrs by scintillation counter; conditions: IMT 8425, 48 h

## C[C@H]1c2cccc(O)c2C(=O)C2=C(O)[C@]3(O)C(=O)C(C(N)=O)=C(O)[C@@H](N(C)C)[C@@H]3[C@@H](O)[C@@H]21 [DOXYCYCLINE]
Plasmodium falciparum [1]
  IC50: 11600 nM
Plasmodium falciparum [2]
  IC50: 9200 nM
Plasmodium falciparum [3]
  IC50: 10900 nM
Plasmodium falciparum [4]
  IC50: 8700 nM
Plasmodium falciparum [5]
  IC50: 4600 nM
Plasmodium falciparum [6]
  IC50: 13700 nM
Plasmodium falciparum [7]
  IC50: 11500 nM
Plasmodium falciparum [8]
  IC50: 10200 nM
Plasmodium falciparum [9]
  IC50: 9100 nM

## Clc1ccc2c(N3CCN(CCCN4CCN(c5ccnc6cc(Cl)ccc56)CC4)CC3)ccnc2c1 [PIPERAQUINE]
Plasmodium falciparum [10]
  IC50: 56 nM
Plasmodium falciparum [11]
  IC50: 74 nM
Plasmodium falciparum [12]
  IC50: 29 nM
Plasmodium falciparum [13]
  IC50: 81 nM
Plasmodium falciparum [14]
  IC50: 48 nM
Plasmodium falciparum [15]
  IC50: 61 nM
Plasmodium falciparum [16]
  IC50: 84 nM
Plasmodium falciparum [17]
  IC50: 64 nM
Plasmodium falciparum [18]
  IC50: 47 nM
Plasmodium falciparum [19]
  IC50: 37 nM
Plasmodium falciparum [20]
  IC50: 58 nM
Plasmodium falciparum [21]
  IC50: 58 nM
Plasmodium falciparum [22]
  IC50: 52 nM
Plasmodium falciparum [23]
  IC50: 58 nM
Plasmodium falciparum [1]
  IC50: 98 nM
Plasmodium falciparum [24]
  IC50: 53 nM
Plasmodium falciparum [25]
  IC50: 80 nM
Plasmodium falciparum [26]
  IC50: 55 nM
Plasmodium falciparum [27]
  IC50: 69 nM
Plasmodium falciparum [28]
  IC50: 46 nM
Plasmodium falciparum [29]
  IC50: 63 nM
Plasmodium falciparum [2]
  IC50: 75 nM
Plasmodium falciparum [30]
  IC50: 48 nM
Plasmodium falciparum [3]
  IC50: 44 nM
Plasmodium falciparum [31]
  IC50: 74 nM
Plasmodium falciparum [5]
  IC50: 29 nM
Plasmodium falciparum [32]
  IC50: 81 nM
Plasmodium falciparum [6]
  IC50: 48 nM
Plasmodium falciparum [7]
  IC50: 61 nM
Plasmodium falciparum [33]
  IC50: 84 nM
Plasmodium falciparum [8]
  IC50: 64 nM
Plasmodium falciparum [34]
  IC50: 47 nM
Plasmodium falciparum [35]
  IC50: 52 nM
Plasmodium falciparum [36]
  IC50: 58 nM
Plasmodium falciparum [37]
  IC50: 98 nM
Plasmodium falciparum [38]
  IC50: 53 nM
Plasmodium falciparum [39]
  IC50: 80 nM
Plasmodium falciparum [40]
  IC50: 55 nM
Plasmodium falciparum [41]
  IC50: 69 nM
Plasmodium falciparum [42]
  IC50: 46 nM
Plasmodium falciparum [43]
  IC50: 63 nM
Plasmodium falciparum [44]
  IC50: 75 nM
Plasmodium falciparum [45]
  IC50: 48 nM
Plasmodium falciparum [46]
  IC50: 44 nM

## C=C[C@H]1CN2CC[C@H]1C[C@H]2[C@H](O)c1ccnc2ccc(OC)cc12 [QUININE]
Plasmodium falciparum [21]
  IC50: 134 nM
Plasmodium falciparum [23]
  IC50: 48 nM
Plasmodium falciparum [27]
  IC50: 135 nM
Plasmodium falciparum [28]
  IC50: 604 nM
Plasmodium falciparum [29]
  IC50: 322 nM
Plasmodium falciparum [30]
  IC50: 272 nM
Plasmodium falciparum [3]
  IC50: 138 nM
Plasmodium falciparum [5]
  IC50: 118 nM
Plasmodium falciparum [6]
  IC50: 240 nM
Plasmodium falciparum [7]
  IC50: 969 nM
Plasmodium falciparum [33]
  IC50: 607 nM
Plasmodium falciparum [8]
  IC50: 953 nM
